Measurements reported in patent publication US20050079159A1, “In vivo bioreactors” (Massachusetts Instiute of Technology, priority 2001, published 2005).

System: periosteal explants
Assay: In vitro periosteal chondrogenesis, organ culture model in alginate gel suspension
Format: cell-based
Settings: 10 ng/ml; for Chondrogenesis (H & E; Safranin-O): first two weeks
Method: A further in vitro study of periosteal chondrogenesis has been performed to evaluate an organ culture model using an alginate gel suspension. Briefly, periosteal explants of approximate dimensions 3×3 mm were cultured in an alginate gel suspension and supplemented with either TGF-β1, b-FGF, a combination of the two, or in the absence of growth factors. b-FGF and TGF-β1 were administered at a concentration of 10 ng/ml every two days at each media change for the first week and first two weeks of in vitro culture respectively.
Additionally the cultures were supplemented daily with 50 μg/ml ascorbic acid for the first four weeks of in vitro culture. Results from histological analysis (H & E; and Safranin-O staining) of the explants performed at 1, 3, 6 and 8 week timepoints, were similar to those from the organ culture model utilizing the agarose gel (data not shown). Namely, after a period of 1 week in vitro culture, none of the explants stained positive for glycosaminoglycans using Safranin-O staining. Significant neo-chondrogenesis from the periosteum was not observed for explants cultured in the absence of added growth factors or supplemented with b-FGF alone over the period of 8 weeks. […] Safranin-O stains of typical periosteal explants after 1, 3, 6 and 8 weeks in vitro culture when b-FGF and TGF-β1 were administered for the first week and first two weeks of in vitro culture were observed.

Substance	Chondrogenesis (H & E; Safranin-O) (after 3 weeks in vitro culture)	Chondrogenesis (H & E; Safranin-O) (after 8 weeks in vitro culture)	Significant neo-chondrogenesis from the periosteum (H & E; Safranin-O) (over the period of 8 weeks in vitro culture)
TGF-β1: transforming growth factor	apparent	most pronounced	–
b-FGF: basic fibroblast growth factor	–	–	not observed
